“And” between values parts separate entries of the source, which are not always exact repeats. Identical values can stand only once. Like-named read-outs stand apart in the source and are kept apart here.
Columns and labels:
Assay type in all cases: biochemical
human CSNK1A1 [1] = molecular target: T1, human CSNK1A1 (Homo sapiens (Human), UniProt P48729); assay: CSNK1A1 Assay 2 (ADP-Glo, 1 μM ATP); conditions: substrate biotin-Ahx-KRRRAL-pS-VASLPGL, read-out: CSNK1A1 Assay 2 IC50 [mol/l] (median)
Method in brief: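 Full-length human CSNK1A1 as an N-terminal GST fusion (baculovirus/insect cells) with biotinylated peptide substrate biotin-Ahx-KRRRAL-pS-VASLPGL and 1 μM ATP, in HEPES pH 7.5 buffer. Compounds were pre-incubated with enzyme (~0.0375 ng/μL) for 15 min at 22 °C. Generated ADP was read by ADP-Glo luminescence as the activity measure.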

human CSNK1D = human CSNK1D (Homo sapiens (Human), UniProt P48730); assay: CSNK1D Assay (ADP-Glo, 1 μM ATP); conditions: read-out: CSNK1D IC50 [mol/l] (median)
Method in brief: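 Activity is read as ADP produced, by ADP-Glo luminescence after 1 h steps at 22 °C. The reaction uses 1 μM ATP, a biotinylated peptide and insect-cell-expressed GST–CSNK1D (about 0.5 ng/μL) in pH 7.5 HEPES buffer, with 15 min compound–enzyme preincubation.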

[2] = molecular target: wild-type Epidermal Growth Factor Receptor (EGFR) (Homo sapiens (Human), UniProt P00533); assay: WT-EGFR Kinase Assay (TR-FRET, 2 mM ATP)
human CSNK1A1 [3] = molecular target: T1, human CSNK1A1; assay: CSNK1A1 High ATP Assay (ADP-Glo, 1 mM ATP); conditions: read-out: CSNK1A1 high ATP assay IC50 [mol/l] (median)
Method in brief: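 Kinase activity taken as ADP generated, quantified by ADP-Glo luminescence after 1 h ATP depletion and 1 h detection at 22 °C. Enzyme is GST–full-length human CSNK1A1 (insect cell-expressed), pre-bound to compound for 15 min, with phosphopeptide substrate and 1 mM ATP.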

[4] = EGFR Wildtyp- 2 mM ATP IC50 [mol/l] (median)
[5] = read-out: EGFR Wildtyp- 2 mM ATP IC50 [mol/l] (median)

human CSNK1D, sequence (P48730 whole entry): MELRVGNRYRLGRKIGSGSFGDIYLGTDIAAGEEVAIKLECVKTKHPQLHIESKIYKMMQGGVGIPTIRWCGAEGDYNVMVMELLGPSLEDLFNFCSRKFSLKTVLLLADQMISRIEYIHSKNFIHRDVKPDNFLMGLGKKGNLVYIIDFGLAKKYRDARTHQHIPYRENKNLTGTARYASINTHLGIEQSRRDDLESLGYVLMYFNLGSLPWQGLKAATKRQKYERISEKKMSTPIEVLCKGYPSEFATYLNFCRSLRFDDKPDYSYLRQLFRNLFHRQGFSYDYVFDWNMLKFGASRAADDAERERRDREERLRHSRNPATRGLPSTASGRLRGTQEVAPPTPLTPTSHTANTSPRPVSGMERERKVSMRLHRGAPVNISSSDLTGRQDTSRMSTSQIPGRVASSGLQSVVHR
wild-type Epidermal Growth Factor Receptor (EGFR), sequence (P00533 669-1210): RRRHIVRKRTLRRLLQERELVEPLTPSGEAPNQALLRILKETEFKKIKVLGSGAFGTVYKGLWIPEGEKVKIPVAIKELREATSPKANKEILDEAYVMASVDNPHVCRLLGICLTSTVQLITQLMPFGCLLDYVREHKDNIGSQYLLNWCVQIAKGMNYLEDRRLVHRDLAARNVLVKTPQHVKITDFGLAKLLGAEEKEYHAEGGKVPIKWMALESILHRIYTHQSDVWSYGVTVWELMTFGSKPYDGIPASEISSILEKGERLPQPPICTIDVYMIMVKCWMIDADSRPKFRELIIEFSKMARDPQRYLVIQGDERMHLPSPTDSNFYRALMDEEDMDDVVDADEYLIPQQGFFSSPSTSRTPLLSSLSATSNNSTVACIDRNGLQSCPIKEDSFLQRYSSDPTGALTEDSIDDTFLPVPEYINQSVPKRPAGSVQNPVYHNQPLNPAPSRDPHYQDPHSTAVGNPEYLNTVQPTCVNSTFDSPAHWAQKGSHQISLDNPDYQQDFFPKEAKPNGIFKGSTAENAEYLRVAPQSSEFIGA
T1 sequence (P48729 whole entry, the tested form may be a part): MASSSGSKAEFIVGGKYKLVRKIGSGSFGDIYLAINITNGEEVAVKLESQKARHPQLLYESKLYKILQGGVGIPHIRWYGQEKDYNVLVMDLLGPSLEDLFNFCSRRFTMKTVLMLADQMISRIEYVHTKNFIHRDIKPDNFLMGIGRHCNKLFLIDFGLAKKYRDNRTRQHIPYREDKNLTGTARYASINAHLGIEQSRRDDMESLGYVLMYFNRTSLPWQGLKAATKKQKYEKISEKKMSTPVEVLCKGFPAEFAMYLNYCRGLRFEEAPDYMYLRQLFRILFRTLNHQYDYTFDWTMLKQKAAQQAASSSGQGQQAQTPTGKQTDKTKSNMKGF

| SMILES | IC50 (human CSNK1A1 [1]) | IC50 (human CSNK1D) | IC50 [2, 4] | IC50 (human CSNK1A1 [3]) | IC50 [2, 5] |
| --- | --- | --- | --- | --- | --- |
| CCN1CCc2[nH]c(-c3ccnc(NC(=O)C(C)c4ccc(F)cc4)c3)c(Nc3ccccc3)c2C1=O (single isomer, unassigned) [Example 25, N-[4-(3-anilino-5-ethyl-4-oxo-4,5,6,7-tetrahydro-1H-pyrrolo[3,2-c]pyridin-2-yl)pyridin-2-yl]-2-(4-fluorophenyl)propanamide] | 55.4 nM | 88.6 nM | > 20000 nM | 12700 nM and > 20000 nM | – |
| CN1CCc2[nH]c(-c3ccnc(NC(=O)Cc4ccc(C(F)F)cc4)c3)c(Nc3ccccc3)c2C1=O [Example 78, N-[4-(3-anilino-5-methyl-4-oxo-4,5,6,7-tetrahydro-1H-pyrrolo[3,2-c]pyridin-2-yl)pyridin-2-yl]-2-[4-(difluoromethyl)phenyl]acetamide] | 2.95 nM | 7.93 nM | – | 95.5 nM | 3090 nM |
| CN1CCc2[nH]c(-c3ccnc(NC(=O)Cc4c(F)cc(F)cc4F)c3)c(Nc3ccccc3)c2C1=O [Example 164, N-[4-(3-anilino-5-methyl-4-oxo-4,5,6,7-tetrahydro-1H-pyrrolo[3,2-c]pyridin-2-yl)pyridin-2-yl]-2-(2,4,6-trifluorophenyl)acetamide] | 3.83 nM | 3.08 nM | – | 149 nM | 419 nM |
| COC(=O)c1ccc(CC(=O)Nc2cc(-c3[nH]c4c(c3Nc3ccccc3)C(=O)N(C)CC4)ccn2)cc1 [Example 117, methyl 4-(2-{[4-(3-anilino-5-methyl-4-oxo-4,5,6,7-tetrahydro-1H-pyrrolo[3,2-c]pyridin-2-yl)pyridin-2-yl]amino}-2-oxoethyl)benzoate] | 1.46 nM | 2.99 nM | – | 96.2 nM | 1270 nM |
| O=C(Cc1ccc(F)cc1)Nc1cc(-c2[nH]c3c(c2Nc2ccccc2)C(=O)NC(C(F)(F)F)C3)ccn1 (racemic) [Example 43, N-{4-[3-anilino-4-oxo-6-(trifluoromethyl)-4,5,6,7-tetrahydro-1H-pyrrolo[3,2-c]pyridin-2-yl]pyridin-2-yl}-2-(4-fluorophenyl)acetamide] | 3.52 nM | 7.12 nM | 2000 nM | 67.5 nM | – |
| CN1CCc2[nH]c(-c3ccnc(NC(=O)Cc4ccccn4)c3)c(Nc3ccccc3)c2C1=O [Example 115, N-[4-(3-anilino-5-methyl-4-oxo-4,5,6,7-tetrahydro-1H-pyrrolo[3,2-c]pyridin-2-yl)pyridin-2-yl]-2-(pyridin-2-yl)acetamide] | 2.41 nM | 5.09 nM | – | 248 nM | 3670 nM |
| CC(C)(O)CN1CCc2[nH]c(-c3ccnc(NC(=O)Cc4ccc(F)cc4)c3)c(Nc3ccccc3)c2C1=O [Example 23, N-{4-[3-anilino-5-(2-hydroxy-2-methylpropyl)-4-oxo-4,5,6,7-tetrahydro-1H-pyrrolo[3,2-c]pyridin-2-yl]pyridin-2-yl}-2-(4-fluorophenyl)acetamide] | 26.7 nM | 36.8 nM | – | 2620 nM | 7280 nM |
| CC1(C)Cc2[nH]c(-c3ccnc(NC(=O)C(CC(F)F)c4ccc(F)cc4)c3)c(Nc3ccccc3)c2C(=O)N1 (single isomer, unassigned) [Example 50, N-[4-(3-anilino-6,6-dimethyl-4-oxo-4,5,6,7-tetrahydro-1H-pyrrolo[3,2-c]pyridin-2-yl)pyridin-2-yl]-4,4-difluoro-2-(4-fluorophenyl)butanamide] | 51 nM | 68.2 nM | – | 2460 nM | > 20000 nM |
| O=C1NC2(CCC2)Cc2[nH]c(-c3ccnc(NC(=O)C(CC(F)F)c4ccc(F)cc4)c3)c(Nc3cccc(F)c3Cl)c21 (single isomer, unassigned; enantiomer 2) [Example 125, (+)-N-{4-[3′-(2-chloro-3-fluoroanilino)-4′-oxo-1′,4′,5′,7′-tetrahydrospiro[cyclobutane-1,6′-pyrrolo[3,2-c]pyridin]-2′-yl]pyridin-2-yl}-4,4-difluoro-2-(4-fluorophenyl)butanamide (Enantiomer 2)] | 10.5 nM | 9.39 nM | – | 12.1 nM | > 20000 nM |
| CC(C(=O)Nc1cc(-c2[nH]c3c(c2Nc2ccccc2Cl)C(=O)NCC3)ccn1)c1ccc(F)cc1 (single isomer, unassigned) [Example 15, N-{4-[3-(2-chloroanilino)-4-oxo-4,5,6,7-tetrahydro-1H-pyrrolo[3,2-c]pyridin-2-yl]pyridin-2-yl}-2-(4-fluorophenyl)propanamide] | 42.5 nM | 38.6 nM | > 20000 nM | 10700 nM and > 5710 nM | – |
| CC1Cc2[nH]c(-c3ccnc(NC(=O)Cc4ccc(F)cc4)c3)c(Nc3ccccc3)c2C(=O)N1C (single isomer, unassigned; (+)) [Example 89, (+)-N-{4-[3-anilino-5,6-dimethyl-4-oxo-4,5,6,7-tetrahydro-1H-pyrrolo[3,2-c]pyridin-2-yl]pyridin-2-yl}-2-(4-fluorophenyl)acetamide] | 1.88 nM | 5.72 nM | 6050 nM | 364 nM | – |
| CC1(C)Cc2[nH]c(-c3ccnc(NC(=O)C(CC(F)F)c4ccc(F)cc4)c3)c(Nc3cccc(F)n3)c2C(=O)N1 (single isomer, unassigned; enantiomer 1) [Example 129, 4,4-difluoro-2-(4-fluorophenyl)-N-(4-{3-[(6-fluoropyridin-2-yl)amino]-6,6-dimethyl-4-oxo-4,5,6,7-tetrahydro-1H-pyrrolo[3,2-c]pyridin-2-yl}pyridin-2-yl)butanamide (Enantiomer 1)] | 3.39 nM | 5.4 nM | > 20000 nM | 6.37 nM | – |
| Cc1cc(CC(=O)Nc2cc(-c3[nH]c4c(c3Nc3ccccc3)C(=O)N(C)CC4)ccn2)ccn1 [Example 85, N-[4-(3-anilino-5-methyl-4-oxo-4,5,6,7-tetrahydro-1H-pyrrolo[3,2-c]pyridin-2-yl)pyridin-2-yl]-2-(2-methylpyridin-4-yl)acetamide] | 1.78 nM | 3.36 nM | – | 26.5 nM | 937 nM |
| CN1C(=O)c2c([nH]c(-c3ccnc(NC(=O)C(CC(F)F)c4ccc(F)cc4)c3)c2Nc2ccccc2F)CC1(C)C (racemic) [Example 45, 4,4-difluoro-N-{4-[3-(2-fluoroanilino)-5,6,6-trimethyl-4-oxo-4,5,6,7-tetrahydro-1H-pyrrolo[3,2-c]pyridin-2-yl]pyridin-2-yl}-2-(4-fluorophenyl)butanamide] | 16.3 nM | 13.2 nM | > 20000 nM | 273 nM | – |
| O=C1NC2(CCC2)Cc2[nH]c(-c3ccnc(NC(=O)C(CC(F)F)c4ccc(F)cc4)c3)c(Nc3ccccc3)c21 (racemic) [Example 54, N-[4-(3′-anilino-4′-oxo-1′,4′,5′,7′-tetrahydrospiro[cyclobutane-1,6′-pyrrolo[3,2-c]pyridin]-2′-yl)pyridin-2-yl]-4,4-difluoro-2-(4-fluorophenyl)butanamide] | 4.62 nM | 5.5 nM | > 20000 nM | 14.6 nM | – |
| CC1(C)Cc2[nH]c(-c3ccnc(NC(=O)C(CC(F)F)c4ccc(F)cc4)c3)c(Nc3cccc(F)c3Cl)c2C(=O)N1 (single isomer, unassigned; (+)) [Example 111, (+)-N-{4-[3-(2-chloro-3-fluoroanilino)-6,6-dimethyl-4-oxo-4,5,6,7-tetrahydro-1H-pyrrolo[3,2-c]pyridin-2-yl]pyridin-2-yl}-4,4-difluoro-2-(4-fluorophenyl)butanamide] | 10.9 nM | 10.2 nM | 1140 nM | 135 nM | – |

From patent US12227501B2, “3-amino-2-[2-(acylamino)pyridin-4-yl]-1,5,6,7-tetrahydro-4h-pyrrolo[3,2-c]pyridin-4-one as CSNK1 inhibitors” (Bayer Aktiengesellschaft, priority 2019, dated 2025)
